According to ChEMBL document CHEMBL4706648, “Antitubercular 2-Pyrazolylpyrimidinones: Structure-Activity Relationship and Mode-of-Action Studies” (J Med Chem, 2021):
≈ marks a conversion by molar mass, not a printed value. Calls of active or inactive are those of the source. No cut-off for these calls is given here.

How the values were obtained:
[1] = Aqueous solubility of compound at pH 7.4; assay type: physicochemical
[2] = test system: Mycobacterium tuberculosis; experiment: Antimycobacterial activity against wild-type Mycobacterium tuberculosis H37Rv assessed as inhibition of bacterial growth grown under middlebrook 7H9 medium incubated for 7 days by alamar blue broth microdilution method; assay type: functional; conditions: 168 h, time 7 day
[3] = test system: Mycobacterium tuberculosis; assay type: functional; conditions: H37Rv, 168 h, time 7 day
[4] = test system: Mycobacterium tuberculosis; experiment: Antimycobacterial activity against mmpL3 gene silenced Mycobacterium tuberculosis H37Rv assessed as inhibition of bacterial growth grown under middlebrook 7H9 medium incubated for 7 days by alamar blue broth microdilution method; assay type: functional, organism-based; conditions: time 7.0 day
Vero = experiment: Cytotoxicity against African green monkey Vero cells assessed as reduction in cell viability by MTT assay; assay type: cell-based; conditions: Chlorocebus sabaeus
CHO = experiment: Cytotoxicity against CHO cells assessed as reduction in cell viability by MTT assay; assay type: cell-based; conditions: Cricetulus griseus
[5] = Metabolic stability in rat liver microsomes assessed as parent compound remaining at 1 uM in presence of NADPH by LC-MS/MS analysis; assay type: ADME, Microsome
[6] = test system: Mycobacterium tuberculosis; assay type: functional; conditions: H37Rv, 168 h, time 7 day; remark: listed apart in the source
[7] = test system: Mycobacterium tuberculosis; assay type: functional; conditions: H37Rv, 168 h, time 7 day; remark: listed apart in the source
[8] = test system: Mycobacterium tuberculosis; assay type: functional; conditions: H37Rv, 168 h, time 7 day; remark: listed apart in the source
[9] = Metabolic stability in human liver microsomes assessed as parent compound remaining at 1 uM in presence of NADPH by LC-MS/MS analysis; assay type: ADME, Microsome
[10] = Metabolic stability in mouse liver microsomes assessed as parent compound remaining at 1 uM in presence of NADPH by LC-MS/MS analysis; assay type: ADME, Microsome
[11] = test system: Mycobacterium tuberculosis; assay type: functional; conditions: H37Rv, 168 h, time 7 day; remark: listed apart in the source
[12] = Lipophilicity, log D of the compound in n-octanol and phosphate buffer at pH 7.4 measured after 3 hrs by HPLC-DAD analysis; assay type: physicochemical
[13] = Metabolic stability in mouse liver microsomes assessed as parent compound remaining after 30 mins; assay type: ADME, Microsome; conditions: 0.5 h
[14] = Metabolic stability in human liver microsomes assessed as parent compound remaining after 30 mins; assay type: ADME, Microsome; conditions: 0.5 h
[15] = Metabolic stability in rat liver microsomes assessed as parent compound remaining after 30 mins; assay type: ADME, Microsome; conditions: 0.5 h
[16] = Kinetic solubility of compound at 200 uM at pH 7.4 measured after 20 hrs by HPLC-DAD analysis; assay type: physicochemical; conditions: buffer, pH 7.4, 20 h
[17] = test system: Mycobacterium tuberculosis; experiment: Bactericidal activity against Mycobacterium tuberculosis H37Rv assessed as reduction in CFU grown under middlebrook 7H9/OADC-Glycerol-Tween80 medium at 1 to 2 times MIC incubated for 7 days; assay type: functional; conditions: time 7 day

CC(=O)Nc1cc(C)nn1-c1nc(-c2ccccc2)cc(=O)[nH]1
solubility ([1]; buffer): 150 µM (≈ 46.4 µg/mL) | MIC [2]: 27 µM (≈ 8.35 µg/mL) | MIC [3]: 6 µM (≈ 1.86 µg/mL) | Activity [4]: Active | IC50 (Vero): 35 µM

CCOc1cc(C)nn1-c1nc(C(F)(F)F)cc(=O)[nH]1
solubility ([1]; buffer): 120 µM (≈ 34.6 µg/mL) | MIC [3]: 25 µM (≈ 7.21 µg/mL) | IC50 (CHO): > 50 µM

Cc1cc(C(=O)O)nn1-c1nc(-c2ccc(F)cc2)cc(=O)[nH]1
solubility ([1]; buffer): 155 µM (≈ 48.7 µg/mL) | MIC [3]: > 50 µM

Cc1cc(Nc2ccc(N3CCOCC3)cn2)n(-c2nc(C(F)(F)F)cc(=O)[nH]2)n1
solubility ([1]; buffer): 180 µM (≈ 75.8 µg/mL) | MIC [3]: 2.3 µM (≈ 0.969 µg/mL) | IC50 (CHO): 1.3 µM

CCc1cc(C)nn1-c1nc(C(F)(F)F)cc(=O)[nH]1
solubility ([1]; aqueous, read-out: solubility): 200 µM (≈ 54.4 µg/mL) | MIC [3]: 12 µM (≈ 3.27 µg/mL) | IC50 (CHO): 108 µM

COc1cc(-c2ccccc2)nc(-n2nc(C)cc2C)n1
solubility ([1]; aqueous, read-out: solubility): 200 µM (≈ 56.1 µg/mL) | MIC [3]: > 50 µM | IC50 (CHO): > 50 µM

O=c1cc(-c2ccccc2)nc(-n2cccn2)[nH]1
solubility ([1]; buffer): 190 µM (≈ 45.3 µg/mL) | MIC [3]: 50 µM (≈ 11.9 µg/mL) | IC50 (CHO): > 50 µM

Cc1cc(Nc2ccncc2)n(-c2nc(C(F)(F)F)cc(=O)[nH]2)n1
solubility ([1]; buffer): 20 µM (≈ 6.73 µg/mL) | MIC [3]: > 50 µM

COCCNc1cc(C)nn1-c1nc(C(F)(F)F)cc(=O)[nH]1
solubility ([1]; aqueous, read-out: solubility): 200 µM (≈ 63.5 µg/mL) | MIC [2]: 1.2 µM (≈ 0.381 µg/mL) | MIC [3]: 2 µM (≈ 0.635 µg/mL) | Activity [4]: Active | IC50 (CHO): 17 µM

Cc1ccc(Nc2cc(C)nn2-c2nc(C)cc(O)n2)cc1
Stabilty [5]: 76% | solubility ([1]; aqueous, read-out: solubility): < 5 µM | MIC [6]: 0.4 µM (≈ 0.118 µg/mL) | MIC [2]: 4.8 µM (≈ 1.42 µg/mL) | MIC [7]: 0.02 µM (≈ 0.00591 µg/mL) | MIC [8]: 0.2 µM (≈ 0.0591 µg/mL) | Stabilty [9]: 73% | Stabilty [10]: 78% | MIC [11]: 6 µM (≈ 1.77 µg/mL) | MIC [3]: 2 µM (≈ 0.591 µg/mL) | Activity [4]: Active | IC50 (Vero): 1.2 µM | logD at 3 h [12]: 2.2

CNC(=O)c1ccc(-c2cc(=O)[nH]c(-n3nc(C)cc3C)n2)cc1
solubility ([1]; buffer): 70 µM (≈ 22.6 µg/mL) | MIC [3]: > 50 µM | IC50 (CHO): > 50 µM

Nc1cc(C2CC2)nn1-c1nc(C(F)(F)F)cc(=O)[nH]1
solubility ([1]; buffer): 10 µM (≈ 2.85 µg/mL) | MIC [3]: 25 µM (≈ 7.13 µg/mL) | IC50 (CHO): 24 µM

Cc1cc(N)n(-c2nc(C(F)(F)F)cc(=O)[nH]2)n1
solubility ([1]; aqueous, read-out: solubility): 200 µM (≈ 51.8 µg/mL) | MIC [3]: 20 µM (≈ 5.18 µg/mL) | IC50 (CHO): 120 µM

Cc1cc(C)n(-c2nc(-c3ccc(F)cc3)cc(=O)[nH]2)n1
solubility ([1]; buffer): 35 µM (≈ 9.95 µg/mL) | MIC [3]: 1.2 µM (≈ 0.341 µg/mL) | IC50 (CHO): 4 µM

Cc1cc(C)n(-c2cc(-c3ccccc3)cc(=O)n2C)n1
solubility ([1]; aqueous, read-out: solubility): 185 µM (≈ 51.7 µg/mL) | MIC [3]: > 50 µM | IC50 (CHO): > 50 µM

Cc1cc(C)n(-c2nc(-c3ccncc3)cc(=O)[nH]2)n1
solubility ([1]; buffer): 180 µM (≈ 48.1 µg/mL) | MIC [3]: 9 µM (≈ 2.41 µg/mL) | IC50 (CHO): > 50 µM

Cc1cc(C)n(-c2nc(-c3ccc(S(C)(=O)=O)cc3)cc(=O)[nH]2)n1
solubility ([1]; buffer): 8 µM (≈ 2.76 µg/mL) | MIC [3]: > 50 µM | IC50 (CHO): > 50 µM

Cc1cc(NCCO)n(-c2nc(C(F)(F)F)cc(=O)[nH]2)n1
solubility ([1]; aqueous, read-out: solubility): 200 µM (≈ 60.6 µg/mL) | MIC [3]: 37 µM (≈ 11.2 µg/mL)

Cc1cc(C)n(-c2nc(C)c(-c3ccccc3)c(=O)[nH]2)n1
solubility ([1]; buffer): 190 µM (≈ 53.3 µg/mL) | MIC [3]: 9 µM (≈ 2.52 µg/mL) | IC50 (CHO): 9 µM

Cc1cc(N)n(-c2nc(-c3ccccc3)cc(=O)[nH]2)n1
solubility ([1]; buffer): 180 µM (≈ 48.1 µg/mL) | IC50 (Vero): 9 µM

Cc1cc(C)n(-c2nc(-c3ccccc3)c(C)c(=O)[nH]2)n1
solubility ([1]; buffer): 120 µM (≈ 33.6 µg/mL) | Stabilty [13]: 45% | Stabilty [14]: 65% | MIC [3]: 2 µM (≈ 0.561 µg/mL) | Stabilty [15]: 54% | Kinetic_solubility [16]: 120 µM | IC50 (CHO): 25 µM

Cc1cc(Nc2ccc(C(=O)N(C)C)cc2)n(-c2nc(C(F)(F)F)cc(=O)[nH]2)n1
solubility ([1]; aqueous, read-out: solubility): 200 µM (≈ 81.3 µg/mL) | MIC [3]: > 50 µM

CO[C@H]1/C=C/O[C@@]2(C)Oc3c(C)c(O)c4c(O)c(c(/C=N/N5CCN(C)CC5)c(O)c4c3C2=O)NC(=O)/C(C)=C\C=C\[C@H](C)[C@H](O)[C@@H](C)[C@@H](O)[C@@H](C)[C@H](OC(C)=O)[C@@H]1C [RIFAMPIN]
Activity [17]: 2 log10CFU

Cc1cc(O)nc(-n2nc(C)cc2C)n1
solubility ([1]; buffer): 180 µM (≈ 36.8 µg/mL) | MIC [3]: 30 µM (≈ 6.13 µg/mL) | IC50 (Vero): 325 µM

Cc1cc(C)n(-c2nc(-c3ccc(F)cc3)c(C#N)c(=O)[nH]2)n1
solubility ([1]; buffer): 30 µM (≈ 9.28 µg/mL) | MIC [3]: > 50 µM | IC50 (CHO): > 50 µM
